Results reported in patent US20240294572A1, “Antimicrobial Peptides” (priority 2021, published 2024).
Values after ≈ are worked out from the molar mass of the structure shown. Non-standard residues stand in square brackets, D forms with d. Residues, ends and D or L forms follow the SMILES beside them. *: point of attachment. Myristoyl = CCCCCCCCCCCCCC(=O)*; Lauroyl = CCCCCCCCCCCC(=O)*; Decanoyl = CCCCCCCCCC(=O)*; Octanoyl = CCCCCCCC(=O)*; Hexanoyl = CCCCCC(=O)*

Legend:
Format in all cases: cell-based
[1] = test system: Klebsiella pneumonia ATCC 13883; assay: Antibacterial broth microdilution MIC
Description: (§1) The antibacterial activity of peptides was evaluated using a standard broth microdilution protocol (Clinical Laboratories Standards Institute (CLSI): M07-A10. Methods for Dilution Antimicrobial Susceptibility Tests for Bacteria that grow aerobically; Approved Standard, Tenth Edition, 2015) with minor modifications as described (Mishra, et al. (2019) Proc. Natl. Acad. Sci., 116:13517-13522). In brief, peptides (10 μL per well) with 2-fold dilutions were made in 96-well polystyrene microplates. Subsequently, the logarithmic phase bacterial cultures (i.e., optical density at 600 nm ˜0.5) were diluted to 0.001 OD and aliquoted to 90 μL per well. The plates were incubated overnight at 37°° C. Bacterial controls were treated with water, and the wells containing only the TSB media were used as blank. Positive controls included the parent peptide LL-37 as well as KR12. Post incubation, the plates were read at 630 nm using ChroMate® 4300 Microplate Reader (Awareness Technology, FL).

[2] = test system: E. coli ATCC 25922
Description: as §1
(§2) To study the influence of medium conditions on the antimicrobial activity of peptides against S. aureus USA300, different pH, sodium chloride (NaCl), human sera were included into the antibacterial assays. Control experiments in TSB without any additions (pH 7.4) were set up in the same manner. In addition, antimicrobial activities of human LL-37, KR12, and C10-KR8d were compared in 10%, 50%, and 100% TSB as well as in TSB and MHB using E. coli ATCC 25922 and S. aureus USA300 LAC.

[3] = test system: human red blood cells (hRBCs); settings: red cells of human, 1 h
Description: Hemolytic assays of peptides were performed as described (Lakshmaiah, et al. (2020) Proc. Natl. Acad. Sci., 117:19446-19454). Briefly, human red blood cells (hRBCs) were obtained from UNMC Blood Bank. The cells were washed 3× with isotonic saline (0.9% NaCl) and diluted to 2% (v/v). Peptides at various concentrations were added to the 2% blood cells and incubated at 37° C. for 1 hour. Post-incubation, the plates were spun at 2000 rpm for 10 minutes; aliquots of the supernatant were carefully transferred to a fresh 96-well microplate. The amount of cells lysed is proportional to the hemoglobin released and was measured at 545 nm using a ChroMate® microplate reader (Awareness Technology, FL). The percent lysis was calculated by assuming 100% release when human blood cells were treated with 1% Triton™ X-100, and 0% release when incubated with PBS. The peptide concentration that caused 50% lysis of hRBCs is defined as HC50. The cell selectivity index (CSI) was calculated as the ratio between HC50 and the MIC of the corresponding peptide against MRSA.

[4] = test system: S. aureus Mu50
Description: as §1

[5] = test system: S. aureus USA400
Description: as §1

[6] = test system: S. aureus Newman
Description: as §1

[7] = test system: S. aureus USA200
Description: as §1

[8] = test system: S. aureus USA300 LAC; settings: USA300
Description: as §1, §2

[9] = test system: P. aeruginosa PAO1
Description: as §1

[10] = test system: S. aureus USA300 LAC; assay: Bacterial membrane permeation (propidium iodide); settings: 12.5 μM
Description: The experiment was performed as described with minor modifications (Mishra, et al. (2019) Proc. Natl. Acad. Sci., 116:13517-13522). Serially diluted 10×peptides (10 μL each well) were created in 96-well microtiter plates. Propidium iodide (2 μL) at a fixed concentration of 20 μM was added to each well followed by 88 μL of the exponential phase S. aureus USA300 culture (a final OD600˜0.1 in TSB media or PBS). Both daptomycin (98%, TSZChem, MA) and rifamycin (98%, Alfa Aesar, MA) were used as controls. The plate was incubated at 37° C. with continuous shaking at 100 rpm in a FLUOstar® Omega (BMG LABTECH, NC) microplate reader. The samples fluorescence was read at every 5 minutes for 24 cycles with excitation and emission wavelengths of 584 and 620 nm, respectively. Plots were generated using average values from the experiments using GraphPad Prism 7.

| Structure (SMILES) | MIC (μM) KP [1] | MIC (μM) EC [2] | HC50 [3] | Minimal inhibitory concentration, Mu50 [4] | Minimal inhibitory concentration, USA400 [5] | Minimal inhibitory concentration, Newman [6] | Minimal inhibitory concentration, USA200 [7] | MIC (μM) SA [8] | MIC (μM) PA [9] | membrane permeation (propidium iodide fluorescence) [10] |
| --- | --- | --- | --- | --- | --- | --- | --- | --- | --- | --- |
| CCCCCCCC(=O)N[C@H](CCCCN)C(=O)N[C@H](CCCNC(=N)N)C(=O)N[C@@H](C(=O)N[C@H](Cc1c[nH]c2ccccc12)C(=O)N[C@H](CCC(N)=O)C(=O)N[C@H](CCCNC(=N)N)C(=O)N[C@@H](C(=O)N[C@H](CCCCN)C(=O)N[C@H](CC(=O)O)C(=O)N[C@H](Cc1ccccc1)C(N)=O)[C@H](C)CC)[C@H](C)CC [Peptide C8-KR10d] (Octanoyl-[dK][dR][dI][dW][dQ][dR][dI][dK][dD][dF]-NH2) | 12.5 µM (≈ 18.9 µg/mL) | 6.2 µM (≈ 9.39 µg/mL) | 150 µM | 3.1 µM (≈ 4.7 µg/mL) | 3.1 µM (≈ 4.7 µg/mL) | 3.1 µM (≈ 4.7 µg/mL) | 3.1 µM (≈ 4.7 µg/mL) |  |  |  |
| CCCCCCCC(=O)N[C@@H](CCCCN)C(=O)N[C@@H](CCCNC(=N)N)C(=O)N[C@H](C(=O)N[C@@H](Cc1c[nH]c2ccccc12)C(=O)N[C@@H](CCC(N)=O)C(=O)N[C@@H](CCCNC(=N)N)C(=O)N[C@H](C(=O)N[C@@H](CCCCN)C(N)=O)[C@@H](C)CC)[C@@H](C)CC [Peptide C8-KR8] (Octanoyl-KRIWQRIK-NH2) | >50 µM | 25 µM (≈ 31.3 µg/mL) | >200 µM |  |  |  |  | 6.2 µM (≈ 7.77 µg/mL) | 12.5 µM (≈ 15.7 µg/mL) |  |
| CCCCCCCCCCCCCC(=O)N[C@@H](CCCCN)C(=O)N[C@@H](CCCNC(=N)N)C(=O)N[C@H](C(=O)N[C@@H](Cc1c[nH]c2ccccc12)C(N)=O)[C@@H](C)CC [Peptide C14-KR4] (Myristoyl-KRIW-NH2) | 12.5 µM (≈ 10.1 µg/mL) | 12.5 to 50 µM | <25 µM |  |  |  |  | 3.1 µM (≈ 2.51 µg/mL) | 6.2 µM (≈ 5.03 µg/mL) |  |
| CCCCCCCCCCCCCC(=O)N[C@@H](CCCCN)C(=O)N[C@@H](CCCNC(=N)N)C(=O)N[C@H](C(=O)N[C@@H](Cc1c[nH]c2ccccc12)C(=O)N[C@@H](CCC(N)=O)C(=O)N[C@@H](CCCNC(=N)N)C(N)=O)[C@@H](C)CC [Peptide C14-KR6] (Myristoyl-KRIWQR-NH2) | >50 µM | 12.5 µM (≈ 13.7 µg/mL) | <25 µM |  |  |  |  | 3.1 µM (≈ 3.4 µg/mL) | 6.2 µM (≈ 6.79 µg/mL) |  |
| CO[C@H]1/C=C/O[C@@]2(C)Oc3c(C)c(O)c4c(O)c(cc(O)c4c3C2=O)NC(=O)/C(C)=C\C=C\[C@H](C)[C@H](O)[C@@H](C)[C@@H](O)[C@@H](C)[C@H](OC(C)=O)[C@@H]1C [rifamycin, reference compound] |  |  |  |  |  |  |  |  |  | unable to achieve the same effect |
| CCCCCCCCCC(=O)N[C@@H](CCCCN)C(=O)N[C@@H](CCCNC(=N)N)C(=O)N[C@H](C(=O)N[C@@H](Cc1c[nH]c2ccccc12)C(=O)N[C@@H](CCC(N)=O)C(=O)N[C@@H](CCCNC(=N)N)C(=O)N[C@H](C(=O)N[C@@H](CCCCN)C(=O)N[C@@H](CC(=O)O)C(=O)N[C@@H](Cc1ccccc1)C(=O)N[C@@H](CC(C)C)C(=O)N[C@@H](CCCNC(=N)N)C(N)=O)[C@@H](C)CC)[C@@H](C)CC [Peptide C10-KR12] (Decanoyl-KRIWQRIKDFLR-NH2) | 6.2 to 12.5 µM | >50 µM | <25 µM |  |  |  |  | 3.1 µM (≈ 5.62 µg/mL) | 25 µM (≈ 45.3 µg/mL) |  |
| CCCCCC(=O)N[C@@H](CCCCN)C(=O)N[C@@H](CCCNC(=N)N)C(=O)N[C@H](C(=O)N[C@@H](Cc1c[nH]c2ccccc12)C(N)=O)[C@@H](C)CC [Peptide C6-KR4] (Hexanoyl-KRIW-NH2) | >50 µM | >50 µM | >200 µM |  |  |  |  | >50 µM | >50 µM |  |
| CCCCCC(=O)N[C@@H](CCCCN)C(=O)N[C@@H](CCCNC(=N)N)C(=O)N[C@H](C(=O)N[C@@H](Cc1c[nH]c2ccccc12)C(=O)N[C@@H](CCC(N)=O)C(=O)N[C@@H](CCCNC(=N)N)C(=O)N[C@H](C(=O)N[C@@H](CCCCN)C(=O)N[C@@H](CC(=O)O)C(=O)N[C@@H](Cc1ccccc1)C(=O)N[C@@H](CC(C)C)C(=O)N[C@@H](CCCNC(=N)N)C(N)=O)[C@@H](C)CC)[C@@H](C)CC [Peptide C6-KR12] (Hexanoyl-KRIWQRIKDFLR-NH2) | 6.2 µM (≈ 10.9 µg/mL) | 3.1 µM (≈ 5.44 µg/mL) | 25 µM |  |  |  |  | <1.5 µM | 12.5 µM (≈ 22 µg/mL) |  |
| CCCCCCCC(=O)N[C@@H](CCCCN)C(=O)N[C@@H](CCCNC(=N)N)C(=O)N[C@H](C(=O)N[C@@H](Cc1c[nH]c2ccccc12)C(=O)N[C@@H](CCC(N)=O)C(=O)N[C@@H](CCCNC(=N)N)C(=O)N[C@H](C(=O)N[C@@H](CCCCN)C(=O)N[C@@H](CC(=O)O)C(=O)N[C@@H](Cc1ccccc1)C(=O)N[C@@H](CC(C)C)C(=O)N[C@@H](CCCNC(=N)N)C(N)=O)[C@@H](C)CC)[C@@H](C)CC [Peptide C8-KR12] (Octanoyl-KRIWQRIKDFLR-NH2) | <6.2 µM | 6.2 µM (≈ 11.1 µg/mL) | <25 µM |  |  |  |  | 3.1 µM (≈ 5.53 µg/mL) | 6.2 µM (≈ 11.1 µg/mL) |  |
| CCCCCCCCCCCC(=O)N[C@@H](CCCCN)C(=O)N[C@@H](CCCNC(=N)N)C(=O)N[C@H](C(=O)N[C@@H](Cc1c[nH]c2ccccc12)C(=O)N[C@@H](CCC(N)=O)C(=O)N[C@@H](CCCNC(=N)N)C(=O)N[C@H](C(=O)N[C@@H](CCCCN)C(N)=O)[C@@H](C)CC)[C@@H](C)CC [Peptide C12-KR8] (Lauroyl-KRIWQRIK-NH2) | >50 µM | 6.2 µM (≈ 8.11 µg/mL) | 35 µM |  |  |  |  | 1.5 µM (≈ 1.96 µg/mL) | 3.1 µM (≈ 4.06 µg/mL) |  |
| CCCCCCCC(=O)N[C@@H](CCCCN)C(=O)N[C@@H](CCCNC(=N)N)C(=O)N[C@H](C(=O)N[C@@H](Cc1c[nH]c2ccccc12)C(N)=O)[C@@H](C)CC [Peptide C8-KR4] (Octanoyl-KRIW-NH2) | >50 µM | >50 µM | >200 µM |  |  |  |  | >50 µM | >50 µM |  |
